Active and inactive are the calls of the source. The calls are words filed in the database; no cut-off is given here.
Columns and labels:
[1] = test system: A549; test: Induction of apoptosis in human A549 cells assessed as early apoptotic cells at 10 uM incubated for 48 hrs in presence of erlotinib by annexin V FITC and propidium iodide based flow cytometry (reference value: 2.13 %); format: functional
[2] = test system: A549; test: Induction of apoptosis in human A549 cells assessed as late apoptotic cells at 10 uM incubated for 48 hrs by annexin V FITC and propidium iodide based flow cytometry (reference value: 0.76 %); format: functional
[3] = Antiproliferative activity against human PC9 Gefitinib-resistant (GR) cell assessed as inhibition of cell growth incubated for 48 hrs in presence of erlotinib by MTT assay; format: functional, cell-based; conditions: Gefitinib-resistant PC9, 48 h
[4] = test system: PC-9; test: Antiproliferative activity against human PC-9 cells assessed as inhibition of cell growth incubated for 48 hrs in presence of erlotinib by MTT assay; format: functional, cell-based; conditions: PC-9, 48 h
[5] = test system: A549; test: Induction of apoptosis in human A549 cells assessed as viable cells at 10 uM incubated for 48 hrs in presence of erlotinib by annexin V FITC and propidium iodide based flow cytometry (reference value: 95.6 %); format: functional; conditions: read-out: Activity
[6] = Antiproliferative activity against human PC9 Gefitinib-resistant (GR) cell assessed as inhibition of cell growth incubated for 48 hrs by MTT assay; format: functional, cell-based; conditions: Gefitinib-resistant PC9, 48 h
[7] = test system: PC-9; test: Antiproliferative activity against human PC-9 cells assessed as inhibition of cell growth incubated for 48 hrs by MTT assay; format: functional, cell-based; conditions: PC-9, 48 h
[8] = test system: NCI-H460; test: Antiproliferative activity against human NCI-H460 cells assessed as inhibition of cell growth incubated for 48 hrs in presence of erlotinib by MTT assay; format: functional, cell-based; conditions: NCI-H460, 48 h
[9] = test system: A549; test: Induction of cell cycle arrest in human A549 cells assessed as accumulation of cells at G0/G1 phase at 10 uM incubated for 48 hrs in presence of erlotinib by flow cytometry analysis (reference value: 53.63%); format: functional
[10] = test system: A549; test: Induction of apoptosis in human A549 cells assessed as late apoptotic cells at 10 uM incubated for 48 hrs in presence of erlotinib by annexin V FITC and propidium iodide based flow cytometry (reference value: 0.76 %); format: functional
[11] = test system: NCI-H460; test: Antiproliferative activity against human NCI-H460 cells assessed as inhibition of cell growth incubated for 48 hrs by MTT assay; format: functional, cell-based; conditions: NCI-H460, 48 h
[12] = test system: A549; test: Induction of apoptosis in human A549 cells assessed as early apoptotic cells at 10 uM incubated for 48 hrs by annexin V FITC and propidium iodide based flow cytometry (reference value: 2.13 %); format: functional
[13] = test system: A549; test: Induction of cell cycle arrest in human A549 cells assessed as accumulation of cells at S phase at 10 uM incubated for 48 hrs by flow cytometry analysis (reference value: 46.37%); format: functional
[14] = test system: A549; test: Induction of apoptosis in human A549 cells assessed as viable cells at 10 uM incubated for 48 hrs by annexin V FITC and propidium iodide based flow cytometry (reference value: 95.6 %); format: functional; conditions: read-out: Activity
[15] = test system: A549; test: Antiproliferative activity against human A549 cells assessed as inhibition of cell growth incubated for 48 hrs in presence of erlotinib by MTT assay; format: functional, cell-based; conditions: A549, 48 h
[16] = test system: A549; test: Induction of apoptosis in human A549 cells assessed as necrotic cells at 10 uM incubated for 48 hrs by annexin V FITC and propidium iodide based flow cytometry (reference value: 1.49 %); format: functional
[17] = test system: A549; test: Antiproliferative activity against human A549 cells assessed as inhibition of cell growth incubated for 48 hrs by MTT assay; format: functional, cell-based; conditions: A549, 48 h
[18] = test system: A549; test: Induction of cell cycle arrest in human A549 cells assessed as accumulation of cells at G0/G1 phase at 10 uM incubated for 48 hrs by flow cytometry analysis (reference value: 53.63%); format: functional
[19] = test system: A549; test: Induction of cell cycle arrest in human A549 cells assessed as accumulation of cells at S phase at 10 uM incubated for 48 hrs in presence of erlotinib by flow cytometry analysis (reference value: 46.37%); format: functional
[20] = test system: A549; test: Induction of apoptosis in human A549 cells assessed as necrotic cells at 10 uM incubated for 48 hrs in presence of erlotinib by annexin V FITC and propidium iodide based flow cytometry (reference value: 1.49 %); format: functional
[21] = test system: A549; test: Induction of apoptosis in human A549 cells assessed as upregulation of caspase-9 protein expression at 10 uM incubated for 48 hrs by Western blot analysis; format: functional, cell-based
[22] = test system: A549; test: Induction of apoptosis in human A549 cells assessed as increase in p53 protein expression at 10 uM incubated for 48 hrs by Western blot analysis; format: functional, cell-based
[23] = test system: A549; test: Induction of apoptosis in human A549 cells assessed as downregulation of EGFR expression level at 10 uM incubated for 48 hrs by Western blot analysis; format: functional, cell-based
[24] = test system: A549; test: Induction of apoptosis in human A549 cells assessed as decrease in bcl-2 protein expression at 10 uM incubated for 48 hrs by Western blot analysis; format: functional, cell-based
[25] = test system: A549; test: Induction of apoptosis in human A549 cells assessed as upregulation of caspase-3 protein expression at 10 uM incubated for 48 hrs by Western blot analysis; format: functional, cell-based
[26] = test system: A549; test: Induction of apoptosis in human A549 cells assessed as increase in bax protein expression at 10 uM incubated for 48 hrs by Western blot analysis; format: functional, cell-based
[27] = Antiproliferative activity against human PC9 Gefitinib-resistant (GR) cell assessed as inhibition of cell growth incubated for 48 hrs in presence of evodiamine by MTT assay; format: functional, cell-based; conditions: Gefitinib-resistant PC9, 48 h
[28] = test system: A549; test: Induction of apoptosis in human A549 cells assessed as late apoptotic cells at 10 uM incubated for 48 hrs in presence of 10-hydroxyl-evodiamine by annexin V FITC and propidium iodide based flow cytometry (reference value: 0.76 %); format: functional
[29] = test system: PC-9; test: Antiproliferative activity against human PC-9 cells assessed as inhibition of cell growth incubated for 48 hrs in presence of evodiamine by MTT assay; format: functional, cell-based; conditions: PC-9, 48 h
[30] = test system: PC-9; test: Antiproliferative activity against human PC-9 cells assessed as inhibition of cell growth incubated for 48 hrs in presence of 10-hydroxyl-evodiamine by MTT assay; format: functional, cell-based; conditions: PC-9, 48 h
[31] = test system: A549; test: Induction of cell cycle arrest in human A549 cells assessed as accumulation of cells at S phase at 10 uM incubated for 48 hrs in presence of 10-hydroxyl-evodiamine by flow cytometry analysis (reference value: 46.37%); format: functional
[32] = test system: A549; test: Induction of apoptosis in human A549 cells assessed as necrotic cells at 10 uM incubated for 48 hrs in presence of 10-hydroxyl-evodiamine by annexin V FITC and propidium iodide based flow cytometry (reference value: 1.49 %); format: functional
[33] = cells; conditions: Homo sapiens, Gefitinib-resistant PC9, 48 h
[34] = test system: A549; test: Induction of apoptosis in human A549 cells assessed as viable cells at 10 uM incubated for 48 hrs in presence of 10-hydroxyl-evodiamine by annexin V FITC and propidium iodide based flow cytometry (reference value: 95.6 %); format: functional; conditions: read-out: Activity
[35] = test system: A549; test: cells; conditions: Homo sapiens, A549, 48 h
[36] = test system: A549; test: Induction of apoptosis in human A549 cells assessed as early apoptotic cells at 10 uM incubated for 48 hrs in presence of 10-hydroxyl-evodiamine by annexin V FITC and propidium iodide based flow cytometry (reference value: 2.13 %); format: functional
[37] = test system: A549; test: Induction of cell cycle arrest in human A549 cells assessed as accumulation of cells at G0/G1 phase at 10 uM incubated for 48 hrs in presence of 10-hydroxyl-evodiamine by flow cytometry analysis (reference value: 53.63%); format: functional
[38] = test system: A549; test: cells; conditions: Homo sapiens, A549, 48 h; remark: listed apart in the source
Description: Antiproliferative activity against human A549 cells assessed as inhibition of cell growth incubated for 48 hrs in presence of evodiamine by MTT assay

Row | IC50 [4] [µM] | IC50 [7] [µM] | IC50 [8] [µM] | IC50 [11] [µM] | IC50 [15] [µM] | IC50 [17] [µM] | SMILES | Activity [2] [%] | IC50 [3] [µM] | IC50 [6] [µM] | Activity [12] [%] | Activity [13] [%] | viability at 10 µM [14] [%] | Activity [16] [%] | Activity [18] [%] | also measured
1 | 1.72 | 10.7 | 12.8 | 27.8 | 7.74 | 11.1 | CN1c2ccccc2C(=O)N2CCc3c([nH]c4ccc(O)cc34)[C@H]21 | 1.7 | 3.05 | 10 | 27.8 | 21.77 | 70.2 | 0.34 | 78.23 | Activity [1]: 34.6%; viability at 10 µM [5]: 62%; Activity [9]: 89.36%; Activity [10]: 2.12%; Activity [19]: 10.64%; Activity [20]: 1.26%
2 |  | 1.8 |  |  |  | 23.5 | C#Cc1cccc(Nc2ncnc3cc(OCCOC)c(OCCOC)cc23)c1 [ERLOTINIB] | 1.21 |  | 6.92 | 4.82 | 37.13 | 93 | 1 | 61.87 | IC50 [27]: 4.81 µM; Activity [28]: 2.12%; IC50 [29]: 2.37 µM; IC50 [30]: 1.72 µM; Activity [31]: 10.64%; Activity [32]: 1.26%; IC50 [33]: 3.05 µM; viability at 10 µM [34]: 62%; IC50 [35]: 7.74 µM; Activity [36]: 34.6%; Activity [37]: 89.36%; IC50 [38]: 9.19 µM
3 | 2.37 | 10.2 | 13.4 | 17.1 | 9.19 | 24.7 | CN1c2ccccc2C(=O)N2CCc3c([nH]c4ccccc34)[C@H]21 |  | 4.81 | 11.3 |  |  |  |  |  | 

Row | SMILES | IC50 [4] [µM] | IC50 [7] [µM] | IC50 [8] [µM] | IC50 [11] [µM] | IC50 [15] [µM] | IC50 [17] [µM] | Activity [2] [%] | IC50 [3] [µM] | IC50 [6] [µM] | Activity [12] [%] | Activity [13] [%] | viability at 10 µM [14] [%] | Activity [16] [%] | Activity [18] [%] | also measured
4 | COCCOc1cc2ncnc(Nc3cccc(-c4cn(CCOCCOCCOCCNC(=O)Cn5c(C)c(COC(=O)N(C)CCN(C)C(=O)Oc6ccc7[nH]c8c(c7c6)CCN6C(=O)c7ccccc7N(C)[C@H]86)c6c5C(=O)C=C(OC)C6=O)nn4)c3)c2cc1OCCOC |  | 1.14 |  | 10.6 |  | 3.79 | 1.07 |  | 4.14 | 20.9 | 37.3 | 77.4 | 0.65 | 62.7 | Activity [21]: Active; Activity [22]: Active; Activity [23]: Active; Activity [24]: Active; Activity [25]: Active; Activity [26]: Active
